Measured values as given in ChEMBL document CHEMBL3046389, “Synthesis and biological evaluation of novel hydroquinone dimethyl ethers as potential anticancer and antimicrobial agents” (2013).
In brackets after ≈: the same amount, converted by molar mass.

Key:
Format in all cases: functional
SF-539 = assay: Anticancer activity against Homo sapiens (human) SF539 cells after 48 hr by SRB assay; details: SF-539, 48 h; for CC50: read-out: LC50 (the source's name)
HT-29 = assay: Anticancer activity against Homo sapiens (human) HT-29 cells after 48 hr by SRB assay; details: HT-29, 48 h; for CC50: read-out: LC50 (the source's name)
HOP-92 = assay: Anticancer activity against Homo sapiens (human) HOP92 cells after 48 hr by SRB assay; details: HOP-92, 48 h
RPMI-8226 = assay: Anticancer activity against Homo sapiens (human) RPMI8226 cells after 48 hr by SRB assay; details: RPMI-8226, 48 h; for CC50: read-out: LC50 (the source's name)
PC-3 = assay: Growth inhibition of Homo sapiens (human) PC3 cells at 10 uM after 48 hr by SRB assay; details: PC-3, 48 h, read-out: GI
NCI/ADR-RES = assay: Anticancer activity against Homo sapiens (human) NCI/ADR-RES cells after 48 hr by SRB assay
SW-620 = assay: Anticancer activity against Homo sapiens (human) SW620 cells after 48 hr by SRB assay; details: SW-620, 48 h; for CC50: read-out: LC50 (the source's name)
HL-60(TB) = assay: Growth inhibition of Homo sapiens (human) HL-60(TB) cells at 10 uM after 48 hr by SRB assay; details: HL-60, 48 h, read-out: GI
SNB-19 = assay: Anticancer activity against Homo sapiens (human) SNB19 cells after 48 hr by SRB assay; details: SNB-19, 48 h; for CC50: read-out: LC50 (the source's name)
K562 = assay: Anticancer activity against Homo sapiens (human) K562 cells after 48 hr by SRB assay; details: K562, 48 h; for CC50: read-out: LC50 (the source's name)
SK-MEL-2 = assay: Anticancer activity against Homo sapiens (human) SK-MEL-2 cells after 48 hr by SRB assay; details: SK-MEL-2, 48 h; for CC50: read-out: LC50 (the source's name)
IGROV-1 = assay: Growth inhibition of Homo sapiens (human) IGROV1 cells at 10 uM after 48 hr by SRB assay; details: IGROV-1, 48 h, read-out: GI
MDA-MB-468 = assay: Growth inhibition of Homo sapiens (human) MDA-MB-468 cells at 10 uM after 48 hr by SRB assay; details: MDA-MB-468, 48 h, read-out: GI
HCT-116 = assay: Anticancer activity against Homo sapiens (human) HCT116 cells after 48 hr by SRB assay; details: HCT-116, 48 h; for CC50: read-out: LC50 (the source's name)
CCRF-CEM = assay: Growth inhibition of Homo sapiens (human) CCRF-CEM cells at 10 uM after 48 hr by SRB assay; details: read-out: GI
SK-OV-3 = assay: Anticancer activity against Homo sapiens (human) SKOV3 cells after 48 hr by SRB assay; details: SK-OV-3, 48 h
UO-31 = assay: Growth inhibition of Homo sapiens (human) UO31 cells at 10 uM after 48 hr by SRB assay; details: UO-31, 48 h, read-out: GI
Candida albicans = assay: Antimicrobial activity against Candida albicans DSM 70014 after 48 hr by two-fold serial broth dilution method; details: DSM 70014, 48 h
786-0 = assay: Anticancer activity against Homo sapiens (human) 786-0 cells after 48 hr by SRB assay; details: 786-0, 48 h; for CC50: read-out: LC50 (the source's name)
NCI-H460 [1] = assay: Growth inhibition of Homo sapiens (human) NCI-H460 cells at 10 uM after 48 hr by SRB assay; details: NCI-H460, 48 h, read-out: GI
TK-10 = assay: Anticancer activity against Homo sapiens (human) TK10 cells after 48 hr by SRB assay; details: TK-10, 48 h; for CC50: read-out: LC50 (the source's name)
Malme-3M = assay: Anticancer activity against Homo sapiens (human) MALME-3M cells after 48 hr by SRB assay; details: for CC50: read-out: LC50 (the source's name)
NCI-H522 = assay: Anticancer activity against Homo sapiens (human) NCI-H522 cells after 48 hr by SRB assay; details: NCI-H522, 48 h; for CC50: read-out: LC50 (the source's name)
MCF7 = assay: Growth inhibition of Homo sapiens (human) MCF7 cells at 10 uM after 48 hr by SRB assay; details: MCF7, 48 h, read-out: GI
SF-295 = assay: Anticancer activity against Homo sapiens (human) SF295 cells after 48 hr by SRB assay; details: SF-295, 48 h; for CC50: read-out: LC50 (the source's name)
MOLT-4 = assay: Anticancer activity against Homo sapiens (human) MOLT4 cells after 48 hr by SRB assay; details: MOLT-4, 48 h; for CC50: read-out: LC50 (the source's name)
LOX IMVI = assay: Anticancer activity against Homo sapiens (human) LOXIMVI cells after 48 hr by SRB assay; details: for CC50: read-out: LC50 (the source's name)
Hs-578T = assay: Anticancer activity against Homo sapiens (human) Hs 578T cells after 48 hr by SRB assay; details: for CC50: read-out: LC50 (the source's name)
Pseudomonas aeruginosa = assay: Antimicrobial activity against Pseudomonas aeruginosa ATCC 10145 after 48 hr by two-fold serial broth dilution method; details: ATCC 10145, 48 h
Escherichia coli = assay: Antimicrobial activity against Escherichia coli ATCC 11775 after 48 hr by two-fold serial broth dilution method; details: ATCC 11775, 48 h
NCI-H460 [2] = assay: Anticancer activity against Homo sapiens (human) NCI-H460 cells after 48 hr by SRB assay; details: NCI-H460, 48 h; for CC50: read-out: LC50 (the source's name)
M14 = assay: Anticancer activity against Homo sapiens (human) M14 cells after 48 hr by SRB assay; details: M14, 48 h

## COc1ccc(OC)c(/C=C/c2nnc(S)n2-c2ccc(Cl)cc2)c1
SF-539
  GI50: 4.05 µM
  TGI: 97.9 µM
  CC50: > 100 µM
HT-29
  GI50: 3.67 µM
  TGI: > 100 µM
  CC50: > 100 µM
HOP-92
  GI50: 3.56 µM
  TGI: > 100 µM
HOP-92; read-out: LC50 (the source's name)
  CC50: > 100 µM
RPMI-8226
  GI50: 5.22 µM
  TGI: > 100 µM
  CC50: > 100 µM
PC-3
  inhibition of growth at 10 µM: 41.4%
NCI/ADR-RES
  GI50: 3.63 µM
  LC50: > 100 µM
  TGI: > 100 µM
SW-620
  GI50: 5.09 µM
  TGI: > 100 µM
  CC50: > 100 µM
HL-60(TB)
  inhibition of growth at 10 µM: 95.7%
SNB-19
  GI50: 12.7 µM
  TGI: > 100 µM
  CC50: > 100 µM
K562
  GI50: 4.95 µM
  TGI: > 100 µM
  CC50: > 100 µM
SK-MEL-2
  GI50: 4.05 µM
  TGI: > 100 µM
  CC50: > 100 µM
IGROV-1
  inhibition of growth at 10 µM: 59.9%
MDA-MB-468
  inhibition of growth at 10 µM: 61.2%
HCT-116
  GI50: 4.05 µM
  TGI: > 100 µM
  CC50: > 100 µM
CCRF-CEM
  inhibition of growth at 10 µM: 39.4%
SK-OV-3
  GI50: 9.4 µM
  LC50: > 100 µM
  TGI: > 100 µM
UO-31
  inhibition of growth at 10 µM: 52.9%
Candida albicans
  MFC: 100 µg/mL (≈ 267 µM)
  MIC: 100 µg/mL (≈ 267 µM)
786-0
  GI50: 7.17 µM
  TGI: > 100 µM
  CC50: > 100 µM
NCI-H460 [1]
  inhibition of growth at 10 µM: 61.1%
TK-10
  GI50: 25.8 µM
  TGI: > 100 µM
  CC50: > 100 µM
Malme-3M
  GI50: 70.6 µM
  TGI: > 100 µM
  CC50: > 100 µM
NCI-H522
  GI50: 4.07 µM
  TGI: > 100 µM
  CC50: > 100 µM
MCF7
  inhibition of growth at 10 µM: 68%
SF-295
  GI50: 4.16 µM
  TGI: > 100 µM
  CC50: > 100 µM
MOLT-4
  GI50: 7.74 µM
  TGI: > 100 µM
  CC50: > 100 µM
LOX IMVI
  GI50: 5.02 µM
  TGI: > 100 µM
  CC50: > 100 µM
Hs-578T
  GI50: 3.1 µM
  TGI: > 100 µM
  CC50: > 100 µM
Pseudomonas aeruginosa
  MBC: 100 µg/mL (≈ 267 µM)
  MIC: 50 µg/mL (≈ 134 µM)
Escherichia coli
  MBC: 50 µg/mL (≈ 134 µM)
  MIC: 50 µg/mL (≈ 134 µM)
NCI-H460 [2]
  GI50: 4.53 µM
  TGI: > 100 µM
  CC50: > 100 µM
M14
  GI50: 4.24 µM
  LC50: > 100 µM
  TGI: > 100 µM

## COc1ccc(OC)c(/C=C/c2nnc(Nc3ccc(Cl)cc3)o2)c1
SF-539
  GI50: 11.8 µM
  TGI: 60.5 µM
  CC50: > 100 µM
HT-29
  GI50: 9.44 µM
  TGI: 28.3 µM
  CC50: 82.1 µM
RPMI-8226
  GI50: > 100 µM
  TGI: > 100 µM
  CC50: > 100 µM
NCI/ADR-RES
  GI50: 7.62 µM
  LC50: > 100 µM
  TGI: 98.1 µM
SW-620
  GI50: 18.3 µM
  TGI: > 100 µM
  CC50: > 100 µM
SNB-19
  GI50: 13.8 µM
  TGI: > 100 µM
  CC50: > 100 µM
K562
  GI50: 92.8 µM
  TGI: > 100 µM
  CC50: > 100 µM
SK-MEL-2
  GI50: 9.66 µM
  TGI: > 100 µM
  CC50: > 100 µM
MDA-MB-468
  inhibition of growth at 10 µM: 34%
HCT-116
  GI50: 2.97 µM
  TGI: 13.1 µM
  CC50: > 100 µM
SK-OV-3
  GI50: 2.79 µM
  LC50: 60.6 µM
  TGI: 7.85 µM
UO-31
  inhibition of growth at 10 µM: 95%
Candida albicans
  MFC: 50 µg/mL (≈ 140 µM)
  MIC: 50 µg/mL (≈ 140 µM)
786-0
  GI50: 2.67 µM
  TGI: 7.6 µM
  CC50: 55.3 µM
NCI-H460 [1]
  inhibition of growth at 10 µM: 84.5%
TK-10
  GI50: 7.4 µM
  TGI: 83.2 µM
  CC50: > 100 µM
Malme-3M
  GI50: 9.87 µM
  TGI: 52.4 µM
  CC50: > 100 µM
NCI-H522
  GI50: 7.13 µM
  TGI: 83.7 µM
  CC50: > 100 µM
SF-295
  GI50: 6.15 µM
  TGI: 64.5 µM
  CC50: > 100 µM
MOLT-4
  GI50: > 100 µM
  TGI: > 100 µM
  CC50: > 100 µM
LOX IMVI
  GI50: 7.91 µM
  TGI: > 100 µM
  CC50: > 100 µM
Hs-578T
  GI50: 2.71 µM
  TGI: 8.01 µM
  CC50: > 100 µM
Pseudomonas aeruginosa
  MBC: 100 µg/mL (≈ 279 µM)
  MIC: 100 µg/mL (≈ 279 µM)
Escherichia coli
  MBC: 50 µg/mL (≈ 140 µM)
  MIC: 50 µg/mL (≈ 140 µM)
NCI-H460 [2]
  GI50: 3.77 µM
  TGI: > 100 µM
  CC50: > 100 µM
M14
  GI50: 20.7 µM
  LC50: > 100 µM
  TGI: > 100 µM
